Reference: patent US9447418B2, “Pro- and anti-angiogenic treatments” (UNIVERSITY OF BRISTOL, priority 2007, dated 2016)

Columns and labels:
Assay type in all cases: cell-based, human
[1] = tested on: VEGF terminal exon splice site selection; test: RT-PCR of podocyte mRNA for proximal (VEGFxxx) and distal (VEGFxxxb) spliced isoforms; conditions: podocytes; for TGF-β1 induced VEGFxxxb expression, effect of inhibitor: FIG. 6; for TGF-β1 mediated increased intensity of the VEGFxxxb band (RT-PCR), effect of inhibitor: confirmed by Western blotting and ELISA
Protocol: To confirm that the changes seen by TGF-β1 were at the mRNA level, and the effect of inhibitors acted at the mRNA level, real time polymerase chain reaction (RT-PCR) was carried out using primers that detect both proximal splice isoforms (VEGFxxx, 135 bp band) and distal spliced isoforms (VEGFxxxb, 74 bp band). […] This increase in intensity was inhibited by SB203820, but not by the p42/p44MAPK inhibitor PD98059. […] These findings were confirmed by Western blotting (FIG. 5B) and ELISA (FIG. 5C).

[2] = tested on: VEGF terminal exon splice site selection; test: VEGF isoform ELISA of podocytes (PCIP) after growth factor / inhibitor treatment; conditions: for increase of VEGFxxxb protein level / increase of total VEGF protein expression: 48 h
Protocol: (§1) Proliferating Conditionally Immortalized Podocytes (PCIPs) were derived from cell lines conditionally transformed from normal human podocytes with temperature-sensitive mutant of immortalized SV-40 (Simian Virus 40) T-antigen. At the permissive temperature of 33° C. the SV-40 T-antigen is active and allows the cells to proliferate rapidly (46). PCIPs were cultured in T75 flasks (Greiner) in RPMI-1640® cell culture medium (Sigma) with 10% FBS (Foetal Bovine Serum), 1% ITS (Insulin Transferrin Selenium) (Sigma), 0.5% PSS (Penicillin Streptomycin Solution) (Sigma) and grown to 95% confluency. Then cells were split to six well plates (1×10^4 cells per well) and grown until 95% confluent.
We investigated time- and dose-dependent effects of Insulin-like Growth Factor 1 (IGF-1), Transforming Growth Factor β1 (TGF-β1) and Platelet-Derived Growth Factor (PDGF) on production of VEGF isoforms from cultured PCIPs. Twenty-four hours before treatment cultured medium was replaced with serum free RPMI-1654 medium (Sigma) containing 1% ITS (Sigma) and 0.5% PSS (Sigma). Subsequently, the medium was replaced with fresh serum free RPMI-1654 medium (Sigma) containing 1% ITS (Sigma), 0.5% PSS (Sigma) and increasing concentrations of IGF-1 (Sigma), or TGF-β1 (Sigma) or 40 ng/mL PDGF (Sigma). The conditioned media were collected 24 or 48 hours after stimulation (IGF-1, TGF-β1) and 48 hours (PDGF).
(§2) Total VEGF concentrations in the neat RPE conditioned medium were measured using a standard DuoSet VEGF ELISA (R&D) according to manufacture's instruction. VEGFxxxb was determined with a similar sandwich ELISA, using for capture a monoclonal biotinylated mouse anti-human antibody raised against the terminal nine amino acids of VEGF165b (R&D Systems Cat No. MVRL56/1) and a standard curve for this assay built with recombinant human VEGF165b (R&D). This MVRL56/1 antibody is a commercially available affinity purified mouse monoclonal IgG1 antibody, that has been characterised previously (42, 54).

[3] = tested on: VEGF terminal exon splice site selection; test: Western blotting of podocyte cell lysate
Protocol: as §1
We investigated time- and dose-dependent effects of Insulin-like Growth Factor 1 (IGF-1), Transforming Growth Factor β1 (TGF-β1) and Platelet-Derived Growth Factor (PDGF) on production of VEGF isoforms from cultured PCIPs. Twenty-four hours before treatment cultured medium was replaced with serum free RPMI-1654 medium (Sigma) containing 1% ITS (Sigma) and 0.5% PSS (Sigma). […]
Protein samples were dissolved in Laemmli buffer, boiled for 3-4 min and centrifuged for 2 min at 20,000 g to remove insoluble materials. […] The immunoreactive bands corresponding to panVEGF and VEGFxxxb in each treatment were quantified by ImageJ analysis and normalised to those of β-tubulin.

[4] = tested on: VEGF terminal exon splice site selection; test: IGF-induced proximal splicing (PSS) in podocytes by RT-PCR and ELISA; conditions: for IGF-induced increase in PSS, effect of inhibitor: podocytes
Excerpt: Treatment of podocytes with IGF increases PSS as evidenced by RT-PCR and ELISA. This increase is inhibited by the PKC inhibitor BIM and the SR protein kinase inhibitor SERPIN340 (FIGS. 12 and 13).

[5] = tested on: VEGF terminal exon splice site selection; test: VEGF isoform ELISA of RPE cells after agonist stimulation (IGF-1, TNF-α)
Protocol: Human donor eyes were obtained within 10-30 hours post-mortem from Bristol Eye Bank, Bristol, United Kingdom. Choroid-RPE sheets dissected from ocular globes were fragmented in a small amount of Dulbecco's Modification of Eagle's Medium: Ham's F12 mixture (DMEM: F12) (1:1)+GlutaMAX® supplement (Gibco) and RPE cells were isolated by digestion with 0.3 mg/ml collagenase (Gibco) for 15 min at 37° C. RPE cells were initially cultured for 5 days in the presence of 2.5% v/v foetal bovine serum (FBS) (Gibco) to prevent proliferation of fibroblasts and until the cell cultures became established. After the first passage cell culture was maintained in DMEM:F12 (1:1), supplemented with 10% v/v FBS and antibiotic/antimycotic solution (Sigma). The once passaged cells were homogeneous and contained only RPE as characterized by immunhistochemistry with anti-cytokeratin monoclonal antibody (Sigma). Cultures of RPE were routinely subcultured by trypsinisation (trypsin/EDTA, Sigma). RPE cells at passage 3-4 were plated onto 12.5 cm^2 Petri dishes (Nunc) and allowed to reach 70-80% confluency.
(§3) To determine the effects of agonists the RPE cells were cultured in freshly-replaced medium in the absence of FBS for 24 hours prior to agonist stimulation. IGF-1 (Sigma) and TNF-α (Sigma) were prepared in serum-free medium and were added in the volume of 2 ml at various concentrations, as indicated in the discussion below. No changes in cell morphology were noted on visualisation of the cells after stimulation. 24 hours later conditioned media in all experimental treatments were collected, spun down to remove debris, and placed immediately into −80° C. until the enzyme-linked immuno-sorbent assay (ELISA) was performed. The RPE cells were washed 3 times with ice-cold PBS and lysed in Laemmli buffer for Western blotting.
as §2
Due to relatively low levels of VEGFxxxb found free in the supernatant of RPE cells, for VEGFxxxb ELISA total protein in conditioned medium was precipitated with trichloroacetic acid (TCA). For this purpose 250 μl ice cold 24% TCA and 6.25 μl 2% Sodium Deoxycholate were added to 700 μl conditioned medium and left on ice for 15 min. After centrifugation at 5000×g for 10 min, pellets were collected and resuspended in lysis buffer, containing: 20 mM Tris, pH7.4, 1.5% w/v Triton X-100, 150 mM NaCl, 10% w/v glycerol and protease inhibitors cocktail (Sigma). The pH in the pelleted samples was adjusted to 7.4 with 1.5M Tris (pH8.8). The total protein content in the pellet was measured in conventional manner using bicinchoninic acid (BCA) reagent (Sigma).

[6] = tested on: VEGF terminal exon splice site selection; test: Western blotting of RPE cells after IGF-1
Protocol: as §3
Protein samples were dissolved in Laemmli buffer, boiled for 3-4 min and centrifuged for 2 min at 20,000 g to remove insoluble materials. 15 μg protein per lane were separated by Sodium Dodecyl Sulfate Polyacrylamide Gel Electrophoresis (SDS/PAGE) (12%) and transferred to 0.2 μm nitrocellulose membrane. […] Subsequently the membranes were incubated with secondary horseradish peroxidase (HRP) conjugated antibody, and immunoreactive bands were visualised using enhanced chemiluminescence (ECL) reagent (Pierce). […]

[7] = RT-PCR and ELISA (FIGS. 12 and 13)
[8] = podocytes, IGF-1, compared with control (FIG. 2B)

COc1cccc(-c2cc(=O)c3ccccc3o2)c1N [PD98059]
TGF-β1 induced VEGFxxxb expression, effect of inhibitor [1]: not affected

C[S+]([O-])c1ccc(-c2nc(-c3ccncc3)c(-c3ccc(F)cc3)[nH]2)cc1 (stereo not shown) [SB203580, reference compound]
TGF-β effect on expression of VEGFxxxb or VEGFxxx isoforms in presence of inhibitor ([2]; podocytes (FIG. 5B)): did not increase expression | expression of VEGFxxx isoforms ([2]; podocytes treated with SB203580, below the detection limit): did not increase | VEGF165b expression ([2]; podocytes treated with SB203580, untreated 850±50 pg/mg protein (FIG. 5A)): 450 ± 80 pg/mg | TGF-β1 upregulation of VEGF165b by Western blotting, effect of inhibitor ([3]; podocytes (FIG. 5C)): inhibited | TGF-β1 mediated increased intensity of the VEGFxxxb band (RT-PCR), effect of inhibitor ([1]; TGF-β1 1 nM): inhibited

O=C(Nc1cc(C(F)(F)F)ccc1N1CCCCC1)c1ccncc1 [SERPIN340]
IGF-induced increase in PSS, effect of inhibitor [4, 7]: inhibited

CCN1/C(=C/C(C)=O)Sc2ccc(OC)cc21 [TG003]
TGF-β1 induced VEGFxxxb expression, effect of inhibitor [1]: inhibited | TGF-β1 mediated increased intensity of the VEGFxxxb band (RT-PCR), effect of inhibitor ([1]; TGF-β1 1 nM): inhibited

IGF-1: Insulin-like Growth Factor 1 (Sigma), growth factor favouring proximal splice site selection
share of VEGF produced as VEGFxxxb ([5]; RPE cells after IGF-1 treatment, originally 80±32%): 5±20% | VEGFtotal ([5]; RPE cells, 100 nM IGF-1, N=6, untreated 217±112): 1656±448 pg/mg protein | VEGFxxxb ([5]; RPE cells, 100 nM IGF-1, untreated 78±12): 64±14 pg/mg protein | VEGFxxx ([5]; RPE cells, 100 nM IGF-1, untreated 138±117): 1592 pg/mg protein | VEGF165b by Western blotting ([6]; 100 nM IGF (FIG. 3A)): downregulated | total VEGF relative to loading control by Western blotting ([6]; 100 nM IGF, β-actin loading control (FIG. 3B)): increase | VEGF165b levels [2, 8]: decrease | total VEGF levels [2, 8]: significant increase | proximal splice site selection (PSS) ([4]; podocytes treated with IGF, RT-PCR and ELISA (FIGS. 12 and 13)): increases

TGF-β1: Transforming Growth Factor β1 (Sigma), growth factor favouring distal splice site selection
fall of VEGFxxx expression levels ([2]; podocytes, 1 nM TGF-β): 70±7% | increase of VEGFxxxb protein level ([2]; podocytes, TGF-β1 0.5 nM): 2.9±1.4 fold | increase of total VEGF protein expression ([2]; podocytes, TGF-β1 0.5 nM): 2.25±0.65 fold | increase of VEGFxxxb protein level ([2]; podocytes, TGF-β1 1 nM): 7.2±4.7 fold | increase of total VEGF protein expression ([2]; podocytes, TGF-β1 1 nM): 4.63±0.61 fold | VEGF165b and VEGF121b isoforms by Western blotting ([3]; podocyte cell lysate, 0.5 and 1 nM TGF-β1 (FIG. 4B)): upregulated | relative density of the lower, VEGFxxxb, band (RT-PCR) ([1]; TGF-β1 1 nM): increase

TNF-α
decrease of VEGFxxxb isoforms ([5]; RPE cells, 50 ng/ml TNF-α): 46±3% | mean increase of VEGFxxx isoforms ([5]; RPE cells, 50 ng/ml TNF-α, n=3): 4.5±2.0 fold | VEGFxxx isoforms ([5]; RPE cells, 50 ng/ml TNF-α, n=3, untreated 182±83): 825±366 pg/mg protein | VEGFxxxb isoforms ([5]; RPE cells, 50 ng/ml TNF-α, untreated 99±26): 42±13 pg/mg protein

bisindolyl maleimide [BIM]
IGF-induced increase in PSS, effect of inhibitor [4, 7]: inhibited | VEGF isoform favoured ([4]; summary statement): favoured VEGF165b
